By inhibition is commonly meant the share of the control response that was lost under treatment.

The source made the active and inactive calls. The calls are words filed in the database; no cut-off is given here.

This is an account of results in ChEMBL document CHEMBL4145459, “Synthesis of (3S,4S,5S)-trihydroxylpiperidine derivatives as enzyme stabilizers to improve therapeutic enzyme activity in Fabry patient cell lines” (Eur J Med Chem, 2018).

Data set [1] deals with T1, Lysosomal acid glucosylceramidase (Homo sapiens) (UniProt P04062).
T1 sequence (whole entry): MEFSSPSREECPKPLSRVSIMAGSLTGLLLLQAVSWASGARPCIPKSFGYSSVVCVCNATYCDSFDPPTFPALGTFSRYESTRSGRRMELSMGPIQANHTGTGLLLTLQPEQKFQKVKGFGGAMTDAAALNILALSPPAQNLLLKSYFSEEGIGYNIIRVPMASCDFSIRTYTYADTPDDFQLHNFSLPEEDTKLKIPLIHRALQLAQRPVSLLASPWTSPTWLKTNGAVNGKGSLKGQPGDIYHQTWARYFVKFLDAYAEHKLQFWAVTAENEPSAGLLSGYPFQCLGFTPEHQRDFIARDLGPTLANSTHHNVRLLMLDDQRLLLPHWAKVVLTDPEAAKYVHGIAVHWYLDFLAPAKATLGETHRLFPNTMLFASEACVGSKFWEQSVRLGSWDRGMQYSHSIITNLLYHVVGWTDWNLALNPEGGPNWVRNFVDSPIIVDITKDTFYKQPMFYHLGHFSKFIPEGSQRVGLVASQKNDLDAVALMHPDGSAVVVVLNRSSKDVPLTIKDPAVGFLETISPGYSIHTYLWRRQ
The data set can be described thus: Inhibition of human recombinant acid beta-glucosidase at 100 uM using 4-MU-glycopyranoside as substrate by spectrophotometric analysis.

The test system of data set [2] is Lymphocyte. The data set can be described thus: Cytotoxicity against human lymphocytes at 100 uM after 48 to 72 hrs by AlamarBlue assay. It is filed as cell-based. Background: Alamar Blue is a resazurin reagent that responds to reducing activity.
The target in data set [3] is T2, Alpha-glucosidase (Geobacillus stearothermophilus) (UniProt P94451).
T2 sequence (whole entry): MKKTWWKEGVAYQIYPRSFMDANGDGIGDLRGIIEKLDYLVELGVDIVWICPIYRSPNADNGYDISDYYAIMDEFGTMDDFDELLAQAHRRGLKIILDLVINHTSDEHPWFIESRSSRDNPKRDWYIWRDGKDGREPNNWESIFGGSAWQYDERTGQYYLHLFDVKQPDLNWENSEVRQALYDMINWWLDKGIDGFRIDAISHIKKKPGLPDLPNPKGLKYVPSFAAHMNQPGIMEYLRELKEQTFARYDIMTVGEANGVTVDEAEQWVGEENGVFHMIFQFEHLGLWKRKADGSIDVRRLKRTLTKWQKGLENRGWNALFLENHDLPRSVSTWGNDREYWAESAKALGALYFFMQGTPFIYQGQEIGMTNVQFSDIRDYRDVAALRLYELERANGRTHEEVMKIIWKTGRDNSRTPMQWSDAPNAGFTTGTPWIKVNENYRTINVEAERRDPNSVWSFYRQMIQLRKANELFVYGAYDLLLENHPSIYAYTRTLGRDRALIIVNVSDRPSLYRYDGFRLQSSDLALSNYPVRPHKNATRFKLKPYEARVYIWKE
In words: Inhibition of Bacillus stearothermophilus alpha-glucosidase at 100 uM using 4-MU-glycopyranoside as substrate by spectrophotometric analysis.

Data set [4] deals with Alpha-galactosidase (Coffea arabica) (UniProt Q42656). The data set can be described thus: Inhibition of green coffee beans alpha-galactosidase at 100 uM using 4-MU-glycopyranoside as substrate by spectrophotometric analysis relative to control.
Chain of Alpha-galactosidase (Coffea arabica) (Q42656 16-378 limits assumed): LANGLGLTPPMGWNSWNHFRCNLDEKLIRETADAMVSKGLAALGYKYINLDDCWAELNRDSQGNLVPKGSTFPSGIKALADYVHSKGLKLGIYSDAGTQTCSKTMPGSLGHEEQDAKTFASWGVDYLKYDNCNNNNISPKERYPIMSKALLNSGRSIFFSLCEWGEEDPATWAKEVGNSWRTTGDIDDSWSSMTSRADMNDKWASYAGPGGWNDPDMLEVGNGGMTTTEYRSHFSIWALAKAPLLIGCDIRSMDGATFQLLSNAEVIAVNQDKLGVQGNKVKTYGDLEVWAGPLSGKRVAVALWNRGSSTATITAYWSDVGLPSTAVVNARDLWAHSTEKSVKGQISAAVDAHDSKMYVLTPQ
Data set [5] addresses T3, Beta-galactosidase (Homo sapiens) (UniProt P16278).
T3 sequence (whole entry): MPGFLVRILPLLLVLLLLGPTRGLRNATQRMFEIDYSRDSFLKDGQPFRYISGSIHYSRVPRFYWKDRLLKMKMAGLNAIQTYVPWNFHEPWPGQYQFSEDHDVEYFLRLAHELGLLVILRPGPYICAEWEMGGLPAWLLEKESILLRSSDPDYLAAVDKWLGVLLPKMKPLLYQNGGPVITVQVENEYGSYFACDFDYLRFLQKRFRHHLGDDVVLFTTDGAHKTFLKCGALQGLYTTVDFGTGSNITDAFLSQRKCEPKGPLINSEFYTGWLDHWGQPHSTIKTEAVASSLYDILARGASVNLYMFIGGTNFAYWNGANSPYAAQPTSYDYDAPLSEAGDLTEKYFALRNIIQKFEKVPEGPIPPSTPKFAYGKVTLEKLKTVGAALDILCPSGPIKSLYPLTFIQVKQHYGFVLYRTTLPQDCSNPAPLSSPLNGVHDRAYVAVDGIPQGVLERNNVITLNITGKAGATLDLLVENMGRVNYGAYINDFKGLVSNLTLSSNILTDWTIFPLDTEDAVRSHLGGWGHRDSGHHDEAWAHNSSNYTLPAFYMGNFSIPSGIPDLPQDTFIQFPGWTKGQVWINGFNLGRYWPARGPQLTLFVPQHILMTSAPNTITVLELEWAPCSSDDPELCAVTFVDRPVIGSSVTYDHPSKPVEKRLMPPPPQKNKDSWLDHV
The data set can be described thus: Inhibition of human lymphocyte beta-galactosidase at 100 uM using 4-MU-glycopyranoside as substrate by spectrophotometric analysis.

Data set [6] deals with T4, Lysosomal alpha-mannosidase (Homo sapiens) (UniProt O00754).
T4 sequence (whole entry): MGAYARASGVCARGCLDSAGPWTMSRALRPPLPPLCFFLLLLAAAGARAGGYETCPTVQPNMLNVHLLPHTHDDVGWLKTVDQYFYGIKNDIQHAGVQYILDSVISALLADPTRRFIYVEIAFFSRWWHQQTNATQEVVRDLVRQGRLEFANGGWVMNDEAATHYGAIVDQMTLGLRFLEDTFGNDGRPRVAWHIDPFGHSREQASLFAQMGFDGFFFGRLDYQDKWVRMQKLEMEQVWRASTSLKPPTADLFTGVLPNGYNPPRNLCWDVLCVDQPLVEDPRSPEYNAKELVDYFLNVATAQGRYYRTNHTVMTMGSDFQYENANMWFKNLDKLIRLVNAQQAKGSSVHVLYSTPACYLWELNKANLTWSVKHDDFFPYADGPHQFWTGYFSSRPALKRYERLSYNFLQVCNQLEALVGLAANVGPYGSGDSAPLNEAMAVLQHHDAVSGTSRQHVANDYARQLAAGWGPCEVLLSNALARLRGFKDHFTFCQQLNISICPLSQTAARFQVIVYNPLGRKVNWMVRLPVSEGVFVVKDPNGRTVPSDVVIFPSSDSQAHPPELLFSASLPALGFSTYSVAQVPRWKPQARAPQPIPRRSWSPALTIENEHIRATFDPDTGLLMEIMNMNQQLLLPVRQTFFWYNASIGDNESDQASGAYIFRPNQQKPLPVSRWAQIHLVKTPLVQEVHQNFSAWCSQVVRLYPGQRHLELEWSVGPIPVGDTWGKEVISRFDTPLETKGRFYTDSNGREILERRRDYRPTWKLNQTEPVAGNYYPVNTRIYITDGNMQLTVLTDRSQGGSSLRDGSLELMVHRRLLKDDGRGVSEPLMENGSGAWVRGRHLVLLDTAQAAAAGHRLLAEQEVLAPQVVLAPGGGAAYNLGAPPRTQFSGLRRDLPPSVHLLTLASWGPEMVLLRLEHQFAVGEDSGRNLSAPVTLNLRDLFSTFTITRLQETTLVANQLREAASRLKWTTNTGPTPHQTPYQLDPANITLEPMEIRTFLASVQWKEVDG
In words: Inhibition human recombinant acid alpha-mannosidase at 100 uM using p-nitrophenyl-glycopyranoside as substrate by spectrophotometric analysis.

Data set [7] has as its target T5, Alpha-galactosidase A (Homo sapiens) (UniProt P06280).
T5 sequence (whole entry): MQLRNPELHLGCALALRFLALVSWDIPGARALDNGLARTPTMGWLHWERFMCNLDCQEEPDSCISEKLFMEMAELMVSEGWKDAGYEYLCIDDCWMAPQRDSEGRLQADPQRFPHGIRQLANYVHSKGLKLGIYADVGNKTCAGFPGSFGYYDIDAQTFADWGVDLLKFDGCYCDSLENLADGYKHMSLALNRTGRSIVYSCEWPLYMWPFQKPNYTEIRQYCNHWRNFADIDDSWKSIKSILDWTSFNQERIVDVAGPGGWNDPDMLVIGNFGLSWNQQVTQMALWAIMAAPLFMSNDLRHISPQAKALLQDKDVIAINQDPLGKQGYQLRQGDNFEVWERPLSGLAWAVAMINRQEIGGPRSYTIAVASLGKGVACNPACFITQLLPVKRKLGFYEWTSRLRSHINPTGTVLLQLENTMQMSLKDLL
The data set can be described thus: Inhibition of human recombinant alpha-galactosidase A at 100 uM using 4-MU-alpha-d-galactopyranoside as substrate by fluorescence assay relative to control.

The target of data set [8] is Lysosomal alpha-glucosidase (Homo sapiens) (UniProt P10253). In words: Inhibition of human recombinant acid alpha-glucosidase at 100 uM using 4-MU-glycopyranoside as substrate by spectrophotometric analysis.

Consider `COc1ccc(OC)c(/C=C/C(=O)NC[C@H]2NC[C@H](O)[C@@H](O)[C@H]2O)c1`, for which the inhibition entry in data set [1], in data set [3], in data set [5], in data set [6] and in data set [8] was “inactive” throughout. Further, in data set [2], the Activity entry was “Non-Toxic”. The inhibition in data set [4] was determined as 57%; in data set [7], 99%.
